In article PMC4062305 (Journal of medicinal chemistry, 2013):
“Also recorded” adds a separate entry of the source.

These compounds were tested against T1, FAAH activity in brain (Mus musculus, UniProt O08914) (assay: Ex vivo FAAH inhibition in brain after systemic administration). Settings: s.c. doses up to 40 or 75 mg/kg, 1 h after injection.
T1 sequence (O08914 1-579): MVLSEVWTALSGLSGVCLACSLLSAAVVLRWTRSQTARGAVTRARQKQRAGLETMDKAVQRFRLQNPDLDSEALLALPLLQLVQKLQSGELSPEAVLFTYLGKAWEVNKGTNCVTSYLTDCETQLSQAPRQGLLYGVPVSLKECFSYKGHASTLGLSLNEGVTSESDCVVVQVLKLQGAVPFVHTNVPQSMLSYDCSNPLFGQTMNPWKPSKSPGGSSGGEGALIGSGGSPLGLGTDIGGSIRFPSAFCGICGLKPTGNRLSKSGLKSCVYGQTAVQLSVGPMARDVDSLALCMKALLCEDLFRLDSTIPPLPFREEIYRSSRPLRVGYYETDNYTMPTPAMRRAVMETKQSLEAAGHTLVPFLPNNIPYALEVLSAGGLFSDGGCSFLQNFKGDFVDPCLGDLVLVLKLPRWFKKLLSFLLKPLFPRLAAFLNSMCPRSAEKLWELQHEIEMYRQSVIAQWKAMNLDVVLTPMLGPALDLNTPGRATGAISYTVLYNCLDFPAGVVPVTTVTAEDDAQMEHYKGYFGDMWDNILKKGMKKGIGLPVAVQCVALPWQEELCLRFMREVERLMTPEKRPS
Parameters: species or system Swiss Webster mice

Row | SMILES | Access to the brain in dose-exploration study (brain FAAH inhibition)
1 | CC(=O)Nc1cccc(-c2cc(OC(=O)NC3CCCCC3)ccc2O)c1 [7c, Cyclohexylcarbamic Acid 3’-Acetamido-6-hydroxybiphenyl-3-yl Ester] | significantly higher brain penetration relative to 3, 7d and 7e at all doses tested
2 | NC(=O)c1cccc(-c2cc(OC(=O)NC3CCCCC3)ccc2C(=O)O)c1 [compound 29, Cyclohexylcarbamic Acid 3’-Carbamoyl-6-carboxybiphenyl-3-yl Ester] | failed to enter the brain even at the highest dose tested; also recorded: did not enter the brain, even at the highest dosage tested
3 | N.NC(=O)c1cccc(-c2cc(OC(=O)NC3CCCCC3)ccc2OS(=O)(=O)O)c1 [compound 30, Ammonium Cyclohexylcarbamic Acid 3’-Carbamoyl-6-sulfatebiphenyl-3-yl Ester] | did not enter the brain, even at the highest dosage tested
